Patent US20230158025A1 (UNIVERSITY OF UTAH RESEARCH FOUNDATION, priority 2020, published 2023)

Experiments:
recombinant human GALK1 = recombinant human GALK1 (Homo sapiens, UniProt P51570); experiment: hGALK1 biochemical activity assay (Kinase-Glo Plus, ATP depletion); conditions: recombinant human GALK1, Kinase-Glo Plus ATP depletion, bracketed figure in the cell, e.g. (−1.2), is not defined in the text shown; for IC50: read-out: hGALK
Method in brief: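 Recombinant human or mouse GALK1 (5 nM, with 100 μM galactose, in the added enzyme solution) was run with ATP (35 μM in the substrate solution) in HEPES pH 8.0 buffer. Compounds were tested at 11 1/3-step concentrations from 57.4 μM to 0.97 nM. After 1 h at room temperature, remaining ATP was read by Kinase-Glo Plus luminescence.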

[1] = aqueous kinetic solubility; conditions: aqueous kinetic solubility
PAMPA permeability = conditions: PAMPA
[2] = rat microsomal stability (RLM); conditions: microsomal stability half-life, minutes
recombinant mouse GALK1 = recombinant mouse GALK1 (Mus musculus, UniProt Q9R0N0); experiment: mGALK1 biochemical activity assay (Kinase-Glo Plus, ATP depletion); conditions: recombinant mouse GALK1, Kinase-Glo Plus ATP depletion, bracketed figure in the cell, e.g. (−1.2), is not defined in the text shown; for IC50: read-out: mGALK
Method in brief: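 Recombinant GALK1 (5 nM) with 100 μM galactose; GALK1 turnover read as ATP depletion by Kinase-Glo Plus luminescence. Reaction ran 1 h at room temperature before detection reagent was added.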

Chain of recombinant mouse GALK1 (Q9R0N0 whole entry): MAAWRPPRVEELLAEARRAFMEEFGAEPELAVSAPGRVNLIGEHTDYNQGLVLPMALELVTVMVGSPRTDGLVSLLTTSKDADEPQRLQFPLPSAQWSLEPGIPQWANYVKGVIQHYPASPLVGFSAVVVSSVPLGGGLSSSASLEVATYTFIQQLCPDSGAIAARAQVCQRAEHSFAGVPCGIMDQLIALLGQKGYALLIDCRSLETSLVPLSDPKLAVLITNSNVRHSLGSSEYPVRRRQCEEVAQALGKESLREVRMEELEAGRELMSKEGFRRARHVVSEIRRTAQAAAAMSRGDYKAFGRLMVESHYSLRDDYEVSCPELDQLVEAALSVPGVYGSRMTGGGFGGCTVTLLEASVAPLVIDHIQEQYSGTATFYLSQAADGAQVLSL
Chain of recombinant human GALK1 (P51570 whole entry): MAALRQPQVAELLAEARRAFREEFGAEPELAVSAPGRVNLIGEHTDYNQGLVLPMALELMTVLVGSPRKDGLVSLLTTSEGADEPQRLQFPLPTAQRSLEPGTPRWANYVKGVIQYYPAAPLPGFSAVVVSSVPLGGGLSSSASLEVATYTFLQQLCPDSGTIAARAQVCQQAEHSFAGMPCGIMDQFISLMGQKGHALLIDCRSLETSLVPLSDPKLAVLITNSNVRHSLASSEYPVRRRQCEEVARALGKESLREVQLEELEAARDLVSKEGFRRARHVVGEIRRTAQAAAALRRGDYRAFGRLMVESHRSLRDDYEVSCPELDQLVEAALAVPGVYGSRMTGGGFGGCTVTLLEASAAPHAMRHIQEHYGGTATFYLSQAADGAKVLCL

Row | Structure (SMILES) | IC50 (recombinant human GALK1) [µM] | Sol. [1] [µg/mL] | Perm. (1 × 10^−6 cm/sec) (PAMPA permeability) | Metab. Stabil. (m) [2] [m] | IC50 (recombinant mouse GALK1) [µM] | mGALK (μM) (recombinant mouse GALK1) | hGALK (μM) (recombinant human GALK1)
1 | CC1=C(C(=O)Nc2nncs2)C(c2ccccc2Br)N=C(Nc2nc3ccccc3o2)N1 (stereo not drawn) [Compound 251, 2-(benzo[d]oxazol-2-ylamino)-4-(2-bromophenyl)-6-methyl-N-(1,3,4-thiadiazol-2-yl)-1,4-dihydropyrimidine-5-carboxamide] | 4.32 | <1 | 446.9 1 × 10^−6 cm/sec | >30 | 9.68 |  | 
2 | CC1=C(C(=O)Nc2nncs2)C2(CCCC2)N=C(Nc2nc3ccccc3o2)N1 [Compound 252, 7-(benzo[d]oxazol-2-ylamino)-9-methyl-N-(1,3,4-thiadiazol-2-yl)-6,8-diazaspiro[4.5]deca-6,9-diene-10-carboxamide] | 3.85 | <1 | <1 1 × 10^−6 cm/sec | >30 | 19.3 |  | 
3 | CC1=C(C(=O)Nc2nncs2)C(c2nn(C)cc2Cl)N=C(Nc2nc3ccccc3o2)N1 (stereo not drawn) [Compound 253, 2-(benzo[d]oxazol-2-ylamino)-4-(4-chloro-1-methyl-1H-pyrazol-3-yl)-6-methyl-N-(1,3,4-thiadiazol-2-yl)-1,4-dihydropyrimidine-5-carboxamide] | 7.69 | 12.8 | 746.9 1 × 10^−6 cm/sec | >30 | 17.2 |  | 
4 | CC1=C(C(=O)Nc2nncs2)C(c2n[nH]cc2Cl)N=C(Nc2nc3ccccc3o2)N1 (stereo not drawn) [Compound 254, 2-(benzo[d]oxazol-2-ylamino)-4-(4-chloro-1H-pyrazol-3-yl)-6-methyl-N-(1,3,4-thiadiazol-2-yl)-1,4-dihydropyrimidine-5-carboxamide] | 17.2 | 34.6 | 37.0 1 × 10^−6 cm/sec | >30 | 54.4 |  | 
5 | CC1=C(C(=O)Nc2nncs2)C(c2ccncc2Br)N=C(Nc2nc3ccccc3o2)N1 (stereo not drawn) [Compound 255, 2-(benzo[d]oxazol-2-ylamino)-4-(3-bromopyridin-4-yl)-6-methyl-N-(1,3,4-thiadiazol-2-yl)-1,4-dihydropyrimidine-5-carboxamide] | 3.43 | 6.5 | 208.7 1 × 10^−6 cm/sec | >30 | 19.3 |  | 
6 | CC1=C(C(=O)Nc2nncs2)C(c2ncccc2Cl)N=C(Nc2nc3ccccc3o2)N1 (stereo not drawn) [Compound 256, 2-(benzo[d]oxazol-2-ylamino)-4-(3-chloropyridin-2-yl)-6-methyl-N-(1,3,4-thiadiazol-2-yl)-1,4-dihydropyrimidine-5-carboxamide] | 6.85 | 10.6 | 695.3 1 × 10^−6 cm/sec | >30 | 19.3 |  | 
7 | CC1=C(C(=O)Nc2nncs2)C(c2ncccc2Br)N=C(Nc2nc3ccccc3o2)N1 (stereo not drawn) [Compound 257, 2-(benzo[d]oxazol-2-ylamino)-4-(3-bromopyridin-2-yl)-6-methyl-N-(1,3,4-thiadiazol-2-yl)-1,4-dihydropyrimidine-5-carboxamide] | 4.85 | 3.0 | 709.3 1 × 10^−6 cm/sec | >30 | 6.85 |  | 
8 | CC1=C(C(=O)Nc2nncs2)C(c2c(Br)cnn2C)N=C(Nc2nc3ccccc3o2)N1 (stereo not drawn) [Compound 258, 2-(benzo[d]oxazol-2-ylamino)-4-(4-bromo-1-methyl-1H-pyrazol-5-yl)-6-methyl-N-(1,3,4-thiadiazol-2-yl)-1,4-dihydropyrimidine-5-carboxamide] | 21.7 | 38.7 | 198.3 1 × 10^−6 cm/sec | >30 |  | in- active | 
9 | CC1=C(C(=O)Nc2nncs2)C2(Cc3ccccc32)N=C(Nc2nc3ccccc3o2)N1 (stereo not drawn) [Compound 259, 2′-(benzo[d]oxazol-2-ylamino)-6′-methyl-N-(1,3,4-thiadiazol-2-yl)-1′H-spiro[bicyclo[4.2.0]octane-7,4′-pyrimidine]-1,3,5-triene-5′-carboxamide] |  | 50.9 | 190.9 1 × 10^−6 cm/sec | >30 |  | in- active | in- active

Second part, the molecule after the results:

Row | IC50 (recombinant human GALK1) [µM] | Sol. [1] [µg/mL] | Perm. (1 × 10^−6 cm/sec) (PAMPA permeability) | Metab. Stabil. (m) [2] [m] | IC50 (recombinant mouse GALK1) [µM] | mGALK (μM) (recombinant mouse GALK1) | hGALK (μM) (recombinant human GALK1) | Structure (SMILES)
10 | 12.2 | 37.9 | 102.7 1 × 10^−6 cm/sec | >30 |  | in- active |  | CC1=C(C(=O)Nc2nncs2)C2(CCOC2)N=C(Nc2nc3ccccc3o2)N1 (stereo not drawn) [Compound 260, 7-(benzo[d]oxazol-2-ylamino)-9-methyl-N-(1,3,4-thiadiazol-2-yl)-2-oxa-6,8-diazaspiro[4.5]deca-6,9-diene-10-carboxamide]
11 | 4.85 | <1 | <4.9 1 × 10^−6 cm/sec | >30 | 6.11 |  |  | CC1=C(C(=O)Nc2nncs2)C(c2ccc(Cl)cc2Cl)N=C(Nc2nc3ccccc3o2)N1 (stereo not drawn) [Compound 261, 2-(benzo[d]oxazol-2-ylamino)-4-(2,4-dichlorophenyl)-6-methyl-N-(1,3,4-thiadiazol-2-yl)-1,4-dihydropyrimidine-5-carboxamide]
12 | 13.7 | 11.1 | 185.7 1 × 10^−6 cm/sec | >30 | 19.3 |  |  | CC1=C(C(=O)Nc2nncs2)C(c2cccnc2Br)N=C(Nc2nc3ccccc3o2)N1 (stereo not drawn) [Compound 262, 2-(benzo[d]oxazol-2-ylamino)-4-(2-bromopyridin-3-yl)-6-methyl-N-(1,3,4-thiadiazol-2-yl)-1,4-dihydropyrimidine-5-carboxamide]
13 | 6.85 | <1 | 29.8 1 × 10^−6 cm/sec | >30 | 12.2 |  |  | CC1=C(C(=O)Nc2nncs2)C(c2ccccc2C(F)(F)F)N=C(Nc2nc3ccccc3o2)N1 (stereo not drawn) [Compound 263, 2-(benzo[d]oxazol-2-ylamino)-6-methyl-N-(1,3,4-thiadiazol-2-yl)-4-(2-(trifluoromethyl)phenyl)-1,4-dihydropyrimidine-5-carboxamide]
14 | 3.06 | <1 | <14.4 1 × 10^−6 cm/sec | >30 | 6.11 |  |  | CC1=C(C(=O)Nc2nncs2)C(c2ccc(C)cc2Cl)N=C(Nc2nc3ccccc3o2)N1 (stereo not drawn) [Compound 264, 2-(benzo[d]oxazol-2-ylamino)-4-(2-chloro-4-methylphenyl)-6-methyl-N-(1,3,4-thiadiazol-2-yl)-1,4-dihydropyrimidine-5-carboxamide]
15 | 3.43 | 6.4 | 1044.0 1 × 10^−6 cm/sec | >30 | 19.3 |  |  | CC1=C(C(=O)Nc2nncs2)C(c2nn(C)cc2Br)N=C(Nc2nc3ccccc3o2)N1 (stereo not drawn) [Compound 265, 2-(benzo[d]oxazol-2-ylamino)-4-(4-bromo-1-methyl-1H-pyrazol-3-yl)-6-methyl-N-(1,3,4-thiadiazol-2-yl)-1,4-dihydropyrimidine-5-carboxamide]
